These are literature values, as cited in patent US4024245A, “Antibiotic A-30912 and process for production thereof” (priority 1976, dated 1977).

The test system of the series is dermatophytes. Conditions: F. Benz et al., Helv. Chim. Acta 57, 2459-2477 (1974).

For the substance Echinocandin B, the activity against dermatophytes entry is “inactive against dermatophytes”.
